“And” between values parts separate entries of the source, which are not always exact repeats. Equal entries are not always repeated. The source made the active and inactive calls.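 How the source made its calls: active means CXCR6 IC50 below 5 µM, and the CXCR5 counter screen gives no IC50 under five times the CXCR6 IC50; inactive means the rest.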
What was measured:
[1] = biological target: C-X-C chemokine receptor type 5 (Homo sapiens) (UniProt P32302); assay: antagonism of CXCR6 versus CXCR5 signaling – cell-based, CHO-K1 PathHunter beta-arrestin, luminescence, set 4, selectivity assay for CXCR6 antagonist project, profiling panel (AID 651919); settings: CHO-K1 PathHunter CXCR5 beta-arrestin, CXCR5, mean of runs
[2] = biological target: C-X-C chemokine receptor type 6 (Homo sapiens) (UniProt O00574); assay: as above; settings: CHO-K1 PathHunter CXCR6 beta-arrestin, CXCR6, mean of runs
Sequence of C-X-C chemokine receptor type 6 (Homo sapiens) (O00574 whole entry, looked up): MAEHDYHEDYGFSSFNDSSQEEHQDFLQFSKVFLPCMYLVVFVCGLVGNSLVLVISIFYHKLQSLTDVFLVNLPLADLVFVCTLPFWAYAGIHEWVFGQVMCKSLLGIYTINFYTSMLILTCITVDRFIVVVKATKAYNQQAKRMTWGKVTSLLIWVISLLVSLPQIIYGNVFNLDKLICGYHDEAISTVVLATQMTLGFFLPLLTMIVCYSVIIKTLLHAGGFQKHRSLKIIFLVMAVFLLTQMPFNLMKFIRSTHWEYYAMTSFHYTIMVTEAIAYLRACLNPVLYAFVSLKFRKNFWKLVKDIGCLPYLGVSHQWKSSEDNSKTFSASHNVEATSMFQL

Row | SMILES | IC50 [1] | IC50 [2]
1 | COc1ccc(C(=O)NC2CC3CCCC(C2)N3CC(=O)Nc2ccc(Cl)cc2)cc1OC (stereo not drawn) | > 79 µM (inactive) | > 79 µM (inactive)
2 | COc1ccc(C(=O)NC2CC3CCCC(C2)N3CC(=O)Nc2ccc(Cl)cc2)cc1 (stereo not drawn) | > 79 µM (inactive) | > 79 µM (inactive)
3 | O=C(CN1C2CCCC1CC(NC(=O)c1ccccc1)C2)Nc1ccccc1 (stereo not drawn) | > 79 µM (inactive) | > 79 µM (inactive)
4 | COc1cc(OC)cc(C(=O)NC2CC3CCCC(C2)N3CC(=O)Nc2ccc(Cl)cc2)c1 (stereo not drawn) | > 79 µM (inactive) | > 79 µM (inactive)
5 | COc1ccc(NC(=O)CN2C3CCCC2CC(NC(=O)c2ccc(OC)cc2)C3)cc1 (stereo not drawn) | > 79 µM (inactive) | > 79 µM (inactive)
6 | COc1cccc(C(=O)NC2CC3CCCC(C2)N3CC(=O)Nc2ccc(Cl)cc2)c1 (stereo not drawn) | > 79 µM (inactive) | > 79 µM (inactive)
7 | COc1cc(C(=O)NC2CC3CCCC(C2)N3CC(=O)Nc2ccc(C)cc2)cc(OC)c1OC (stereo not drawn) | > 79 µM (inactive) | inactive
8 | COc1ccc(C(=O)NC2CC3CCCC(C2)N3CC(=O)Nc2ccc(F)cc2)cc1OC (stereo not drawn) | > 79 µM (inactive) | > 79 µM (inactive)
9 | COc1cc(C(=O)NC2CC3CCCC(C2)N3CC(=O)Nc2ccccc2)cc(OC)c1OC (stereo not drawn) | > 79 µM (inactive) | 3.4 µM and 4.74 µM
10 | COc1cccc(C(=O)NC2CC3CCCC(C2)N3CC(=O)Nc2ccccc2)c1 (stereo not drawn) | > 79 µM (inactive) | > 79 µM (inactive)
11 | COc1ccc(NC(=O)CN2C3CCCC2CC(NC(=O)c2ccc4c(c2)OCO4)C3)cc1 (stereo not drawn) | > 79 µM (inactive) | > 79 µM (inactive)
12 | COc1cc(OC)cc(C(=O)NC2CC3CCCC(C2)N3CC(=O)Nc2ccc(C)cc2)c1 (stereo not drawn) | > 79 µM (inactive) | > 79 µM (inactive)
13 | COc1ccccc1NC(=O)CN1C2CCCC1CC(NC(=O)c1cc(OC)c(OC)c(OC)c1)C2 (stereo not drawn) | > 79 µM (inactive) | 1.85 µM
14 | COc1ccc(NC(=O)CN2C3CCCC2CC(NC(=O)c2cccc(OC)c2)C3)cc1 (stereo not drawn) | > 79 µM (inactive) | > 79 µM (inactive)
15 | O=C(CN1C2CCCC1CC(NC(=O)c1ccc3c(c1)OCO3)C2)Nc1ccc(F)cc1 (stereo not drawn) | > 79 µM (inactive) | > 79 µM (inactive)
16 | COc1ccc(C(=O)NC2CC3CCCC(C2)N3CC(=O)Nc2ccc(C)cc2)cc1 (stereo not drawn) | > 79 µM (inactive) | > 79 µM (inactive)
17 | COc1ccc(C(=O)NC2CC3CCCC(C2)N3CC(=O)Nc2ccccc2)cc1OC (stereo not drawn) | > 79 µM (inactive) | > 79 µM (inactive)

Row | SMILES | IC50 [1] | IC50 [2]
18 | COc1ccc(CN2C3CCCC2CC(NC(=O)c2cc(OC)c(OC)c(OC)c2)C3)cc1 (stereo not drawn) | > 79 µM (inactive) | inactive
19 | O=C(CN1C2CCCC1CC(NC(=O)c1ccc3c(c1)OCO3)C2)Nc1ccc(Cl)cc1 (stereo not drawn) | > 79 µM (inactive) | > 79 µM (inactive)
20 | Cc1ccc(NC(=O)CN2C3CCCC2CC(NC(=O)c2ccc4c(c2)OCO4)C3)cc1 (stereo not drawn) | > 79 µM (inactive) | > 79 µM (inactive)
21 | COc1ccc(C(=O)NC2CC3CCCC(C2)N3CC(=O)Nc2ccccc2)cc1 (stereo not drawn) | > 79 µM (inactive) | > 79 µM (inactive)
22 | COc1ccc(C(=O)NC2CC3CCCC(C2)N3CC(=O)Nc2ccc(C)cc2)cc1OC (stereo not drawn) | > 79 µM (inactive) | > 79 µM (inactive)
23 | COc1ccc(NC(=O)CN2C3CCCC2CC(NC(=O)c2ccc(OC)c(OC)c2)C3)cc1 (stereo not drawn) | > 79 µM (inactive) | > 79 µM (inactive)
24 | COc1cc(C(=O)NC2CC3CCCC(C2)N3CC(=O)Nc2ccc(F)cc2)cc(OC)c1OC (stereo not drawn) | > 79 µM (inactive) | inactive
25 | O=C(CN1C2CCCC1CC(NC(=O)c1ccc3c(c1)OCO3)C2)Nc1ccccc1 (stereo not drawn) | > 79 µM (inactive) | > 79 µM (inactive)
26 | COc1cccc(C(=O)NC2CC3CCCC(C2)N3CC(=O)Nc2ccc(F)cc2)c1 (stereo not drawn) | > 79 µM (inactive) | > 79 µM (inactive)
27 | COc1cc(OC)cc(C(=O)NC2CC3CCCC(C2)N3CC(=O)Nc2ccccc2)c1 (stereo not drawn) | 12.5 µM | > 79 µM (inactive)
28 | COc1ccc(NC(=O)CN2C3CCCC2CC(NC(=O)c2cc(OC)cc(OC)c2)C3)cc1 (stereo not drawn) | > 79 µM (inactive) | > 79 µM (inactive)
29 | COc1cccc(C(=O)NC2CC3CCCC(C2)N3CC(=O)Nc2ccc(C)cc2)c1 (stereo not drawn) | > 79 µM (inactive) | > 79 µM (inactive)
30 | COc1cc(C(=O)NC2CC3CCCC(C2)N3CC(=O)Nc2ccc(Cl)cc2)cc(OC)c1OC (stereo not drawn) | > 79 µM (inactive) | 1.48 µM
31 | COc1ccc(C(=O)NC2CC3CCCC(C2)N3CC(=O)Nc2ccc(F)cc2)cc1 (stereo not drawn) | > 79 µM (inactive) | > 79 µM (inactive)
32 | COc1ccc(NC(=O)CN2C3CCCC2CC(NC(=O)c2cc(OC)c(OC)c(OC)c2)C3)cc1 (stereo not drawn) | > 79 µM (inactive) | inactive
33 | COc1cc(C(=O)NC2CC3CCCC(C2)N3CC(=O)Nc2ccccc2Cl)cc(OC)c1OC (stereo not drawn) | > 79 µM (inactive) | 0.356 µM and 0.137 µM
34 | COc1cc(OC)cc(C(=O)NC2CC3CCCC(C2)N3CC(=O)Nc2ccc(F)cc2)c1 (stereo not drawn) | 43.4 µM | > 79 µM (inactive)

— PubChem BioAssay AID651919 (Sanford-Burnham Center for Chemical Genomics, 2012)
